Data set [1] concerns PANC1-GemR (gemcitabine-resistant subline). The data set is described as follows: MTT cell viability assay, PANC1-GemR. The data set is classed as cell-based. As to conditions: Homo sapiens, 72 h, 10% FBS, read-out: IC50, viability of PANC1-GemR cells. The procedure:
(§1) Cell Viability Assay. Cell viability was determined using the 3-(4,5-dimethylthiazol-2-yl)-2,5-diphenyltetrazolium bromide (MTT) assay. Cancer cells were seeded at 5000 cells/well and normal cells were seeded at 8000 cells/well in 96-well plates and incubated in 10% FBS-supplemented medium for 24 h. Cells were then treated with individual agents for 72 h. Drug-containing medium was replaced with medium containing MTT (0.5 mg/mL), followed by incubation at 37° C. for 1 h. After removal of medium, the reduced MTT dye in each well was solubilized in 100 μL of DMSO and absorbance at 570 nm was measured.
(§2) Compound 30 was evaluated for antiproliferative activity in panels of different human cancer cells lines, including those of prostate, breast and pancreatic cancers. In all experiments, cells were treated with a range of concentrations of Compound 30 in the presence of 10% fetal bovine serum (FBS). Cell viability was then determined after 72 h of treatment using the 3-(4,5-dimethylthiazol-2-yl)-2,5-diphenyltetrazolium bromide (MTT) assay. […] It is noteworthy that despite this high antiproliferative potency, normal human prostate epithelial cells (PrECs) were resistant to the cytotoxic effect of Compound 30 even at 10 μM.

The subject of the next data set is BxPC3 cells. The data set is described as follows: MTT cell viability assay, BxPC3. The settings on record: Homo sapiens, BXPC-3, 72 h, 10% FBS. In kind it is cell-based. The procedure:
as §1, §2
In general terms: Tetrazolium assays rely on reduction of a dye to a coloured formazan, in cell work by metabolically active cells.

The next data set concerns MDA-MB-231 cells. The data set is described as follows: MTT cell viability assay, MDA-MB-231. The settings on record: Homo sapiens, 72 h, 10% FBS. In kind it is cell-based. The method, then: as §1, §2
In data set [2] the test system is LNCaP cells. The data set is described as follows: Western blot analysis of energy restriction-associated markers in LNCaP cells. In kind it is cell-based, human. The procedure:
FIG. 4. (A) Dose-dependent suppressive effects of compounds 1, 2, 4, 5, 28, and 30 on the viability of LNCaP cells by MTT assays in 10% FBS-containing RPMI 1640 medium after 72 h of drug treatment. Column, mean; bars, SD (N=6). (B) Dose-dependent effect of compound 30 on the viability of normal prostate epithelial cells (PrECs) and human mammary epithelial cells (HMECs) after 72 h of treatment. Column, mean; bars, SD (N=6). (C) Western blot analysis of the dose-dependent effects of compound 30 on markers associated with apoptosis (PARP cleavage), β-TrCP-mediated protein degradation (β-TrCP, cyclin D1, Sp1, and AR), AMPK activation (p-AMPK, p-mTOR, and pp706SK), ER stress (GRP78 and GADD153), and epigenetic activation of KLF6.
Plasmid Construction, Transient Transfection and Immunoblotting. The full length GLUT1, GLUT4, and GLUT9 ORF cDNA clones were purchased from Addgene (Cambridge, Mass.) and GLUT3 ORF cDNA was purchased from Origene Technologies (Rockville, Md.). GLUT1, GLUT3, and GLUT9 were subcloned into the HindIII/SalI sites and GLUT4 was subcloned into the EcoRI/SalI sites of pEGFP-N2 expression vector (Clontech, Palo Alto, Calif.). Transfections were performed by electroporation using Nucleofector kit R of the Amaxa Nucleofector system (Lonza, Walkersville, Md.) according to the manufacturer's protocol. Immunoblotting was performed using cells lysates harvested with SDS lysis buffer (1% SDS, 50 mM Tris-HCl pH 8.0, 10 mM EDTA) containing 1× protease inhibitor cocktail (Sigma) and phosphatase inhibitor and were electrophoresed in 8˜12% SDS polyacrylamide gels and then transferred onto nitrocellulose membranes. After blotting in 5% nonfat dry milk, the membranes were incubated with primary antibodies at 1:1,000 dilution in TBS-Tween 20 overnight at 4° C., and then secondary antibodies conjugated with horseradish peroxidase at 1:5,000 dilution in TBS-Tween 20 for 1 hour at room temperature. Protein bands were visualized on X-ray film using an enhanced chemiluminescence system.
In general terms: Immunoblotting shows a protein as a band on a membrane.

For data set [3], the system named is human mammary epithelial cells (HMECs). The data set is described as follows: MTT cell viability assay, normal mammary epithelial cells. The settings on record: 72 h, up to 10 μM. In kind it is cell-based.
Excerpt: (§3) Cells and Cell Culture. LNCaP prostate cancer cells were obtained from the American Type Culture Collection (Manassas, Va.). Cells were maintained in 10% fetal bovine serum (FBS)-supplemented RPMI 1640 medium (Invitrogen, Carlsbad, Calif.). Normal human mammary epithelial cells (HMEC) and normal human prostate epithelial cells (PrEC) were obtained from Lonza (Walkersville, Md.) and were maintained in Mammary Epithelial Cell Growth Medium (MEGM) and Prostate Epithelial Cell Growth Medium (PrEGM) (Lonza, Walkersville, Md.), respectively.
as §1

The test system of another data set is SKBR3 cells. The data set is described as follows: MTT cell viability assay, SKBR3. In kind it is cell-based. The settings on record: Homo sapiens, SK-BR-3, 72 h, 10% FBS. The method, then:
as §1, §2

A further data set deals with MDAMB-468 cells. The data set is described as follows: MTT cell viability assay, MDAMB-468. In kind it is cell-based. As to conditions: Homo sapiens, MDA-MB-468, 72 h, 10% FBS. The procedure:
as §1, §2

The test system of another data set is MCF-7 cells. The data set is described as follows: MTT cell viability assay, MCF-7. The settings on record: Homo sapiens, MCF7, 72 h, 10% FBS. In kind it is cell-based. The procedure:
as §1, §2

For data set [4], the system named is normal human prostate epithelial cells (PrECs). The data set is described as follows: MTT cell viability assay, normal prostate epithelial cells. In kind it is cell-based. As to conditions: 72 h, up to 10 μM.
Excerpt: as §3, §1

In a further data set the test system is PANC1 cell line. The data set is described as follows: MTT cell viability assay, PANC1. In kind it is cell-based. The settings on record: Homo sapiens, PANC-1, 72 h, 10% FBS, read-out: IC50, viability of PANC1 cells. The procedure: as §1, §2
A further data set relates to DU-145 cells. The data set is described as follows: MTT cell viability assay, DU-145. The data set is classed as cell-based. As to conditions: Homo sapiens, 72 h, 10% FBS. The procedure: as §1, §2
The next data set deals with AsPC1 cells. The data set is described as follows: MTT cell viability assay, AsPC1. The settings on record: Homo sapiens, 72 h, 10% FBS. The data set is classed as cell-based. The procedure: as §1, §2
For another data set, the system named is Cal-51 cells. The data set is described as follows: MTT cell viability assay, Cal-51. The data set is classed as cell-based. As to conditions: Homo sapiens, 72 h, 10% FBS. The method, then:
as §1, §2

Data set [5] has as its system LNCaP cells. The data set is described as follows: [3H]2-DG glucose uptake assay in LNCaP cells. The data set is classed as cell-based, human. The procedure: Screening of the focused compound library to identify lead glucose uptake inhibitors.
Glucose Uptake Assay. LNCaP cells were seeded in six-well plates (3×10^5 cells/well) for 24 h. […] The cells were lysed in […] lysis buffer (10 mM Tris-HCl pH 8.0, 0.1% SDS) and aliquots were taken for measurement of radioactivity using a scintillation counter (Beckman LS6500).

“Also recorded” adds a separate entry of the source.

Regarding `CC(CN1C(=O)S/C(=C\c2ccc(O)c(C(F)(F)F)c2)C1=O)(CC(F)(F)F)CC(F)(F)F` [Compound 30, 5-(4-Hydroxy-3-trifluoromethyl-benzylidene)-3-[4,4,4-trifluoro-2-methyl-2-(2,2,2-trifluoro-ethyl)-butyl]-thiazolidine-2,4-dione], the IC50 was around 2.5 µM in data set [1]; around 7.5 µM in the data set on BxPC3 cells; 1.9 µM with MDA-MB-231 cells; 1.6 µM in the data set on SKBR3 cells; 1.5 µM with MDAMB-468 cells; around 0.7 µM in the data set with MCF-7 cells. Further, the IC50 in the data set with PANC1 cell line is around 2.5 µM; in the data set on DU-145 cells, 1.5 to 1.7 µM; in the data set with AsPC1 cells it was around 5 µM; with Cal-51 cells, 1.7 µM; in the data set on LNCaP cells [5] (Homo sapiens, LNCaP, Krebs-Ringer phosphate buffer, 37° C., 30 min of drug treatment, read-out: IC50 in blocking [3H]2-DG uptake into LNCaP cells), 2.5 µM. The AMPK phosphorylation result in the data set with LNCaP cells [2] is “increases”. For the same compound, the “PARP cleavage (apoptosis)” value in the data set on LNCaP cells [2] was “dose-dependent increase”. The “expression of ER stress markers GRP78 and GADD153” value in the data set on LNCaP cells [2] is “increased expression”. Moreover, in the data set on LNCaP cells [2], the “expression of KLF6” value is given as “increased the expression”. In addition, the “expression of cyclin D1, Sp1 and AR” value in the data set with LNCaP cells [2] is “downregulation”. Moreover, the “levels of p-mTOR and p-p70S6K” value in the data set with LNCaP cells [2] is “concomitant decreases”. Also, the β-TrCP expression entry in the data set with LNCaP cells [2] was “dose dependently increased”. In addition, in data set [3], the “cytotoxic effect in HMECs” value is “resistant; also recorded: no appreciable cytoxicity; also recorded: no appreciable cytotoxicity”. For the same compound, the “cytotoxic effect in PrECs” value in [4] is recorded as “resistant; also recorded: no appreciable cytoxicity; also recorded: no appreciable cytotoxicity”. The “inhibition of [3H]2-DG uptake into LNCaP cells (screening, in words)” value in the data set with LNCaP cells [5] (each at 5 μM, 30 min of exposure) was “substantially improved potency relative to compound 5”.

The term IC50 denotes the point on the concentration scale where inhibition reaches its midpoint.

For the origin of these results see patent publication US9174951B2, “Glucose transporter inhibitors” (The Ohio State University Research Foundation, priority 2012, dated 2015).
